Measured values from patent publication US10030016B2 (Sunesis Pharmaceuticals, Inc., priority 2009, dated 2018).

What was measured:
[1] = test system: phospho-akt (Thr308) in PC-3 cells; experiment: Inhibition of phospho-akt (Thr308) in PC-3 cells, MSD phospho-akt 308 ELISA kit; format: cell-based; details: Homo sapiens; inhibition of P308 Akt in PC-3 cells using MSD, 2 hours, no serum; read-out: EC50
Summary of the method: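 PC-3 cells (15,000/well, overnight in 10% FBS medium) treated 2 h with three-fold diluted compounds in serum-free medium; DMSO high and 5 μM wortmannin low controls. Lysates captured on BSA-blocked MSD plates overnight at 4 °C, then 1 h antibody detection at RT; phospho-Akt Thr308 read by MSD electrochemiluminescence.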

PDK1 = PDK1 (Homo sapiens (Human), UniProt O15530); experiment: PDK1 kinase assay (coupled PDK1/AKT/FAM-crosstide assay, IMAP fluorescence polarization); format: biochemical; details: inhibition of PDK1 in vitro
Summary of the method: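 GST-tagged PDK1 (aa 51-359, 0.75 nM) was coupled to unphosphorylated GST-AKT2 140-467-PIFtide (10 nM) and 100 nM FAM-crosstide at 40 μM ATP, in Tris pH 7.2 buffer, for 30 min at 25 °C. Crosstide phosphorylation was read by IMAP fluorescence polarization (ΔmP) and fitted with a 4-parameter curve.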

PDK1, sequence (O15530 51-359): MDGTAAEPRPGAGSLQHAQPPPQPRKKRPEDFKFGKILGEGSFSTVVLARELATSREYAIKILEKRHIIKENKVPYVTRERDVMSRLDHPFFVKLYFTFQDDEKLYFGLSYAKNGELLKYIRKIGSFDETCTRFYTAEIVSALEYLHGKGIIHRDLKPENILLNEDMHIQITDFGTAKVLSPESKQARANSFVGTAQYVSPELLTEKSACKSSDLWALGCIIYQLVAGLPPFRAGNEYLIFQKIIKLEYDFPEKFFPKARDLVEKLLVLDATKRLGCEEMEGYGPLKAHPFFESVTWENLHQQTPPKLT

Row | Compound | EC50 [1] | IC50 (PDK1)
1 | COc1cc(-c2ccc(CNc3ncc(C#N)cc3C(=O)N[C@@H](C)c3ccc(F)cc3)cc2)cnc1N [Example 133, (S)-2-(4-(6-amino-5-methoxypyridin-3-yl)benzylamino)-5-cyano-N-(1-(4-fluorophenyl)ethyl)nicotinamide] | < 1 µM | < 0.1 µM
2 | C[C@H](NC(=O)c1cc(C#N)cnc1NCc1ccc(-c2cnc(N)c(OC(F)F)c2)cc1)c1ccc(F)cc1 [Example 134, (S)-2-(4-(6-amino-5-(difluoromethoxy)pyridin-3-yl)benzylamino)-5-cyano-N-(1-(4-fluorophenyl)ethyl)nicotinamide] | < 1 µM | < 0.1 µM
3 | C[C@H](NC(=O)c1cc(C#N)cnc1NCc1ccc(-c2cnc3[nH]cnc3c2)cc1)c1ccc(F)cc1 [Example 135, (S)-2-(4-(3H-imidazo [4,5-b]pyridin-6-yl)benzylamino)-5-cyano-N-(1-(4-fluorophenyl)ethyl)nicotinamide] | < 1 µM | < 0.1 µM
4 | C[C@H](NC(=O)c1cc(C#N)cnc1NCc1ccc(-c2cnc(N)c(CO)c2)cc1)c1ccc(F)cc1 [Example 136, (S)-2-(4-(6-amino-5-(hydroxymethyl)pyridin-3-yl)benzylamino)-5-cyano-N-(1-(4-fluorophenyl)ethyl)nicotinamide] | 1 to 10 µM | < 0.1 µM
5 | C[C@H](NC(=O)c1cc(C#N)cnc1NCc1ccc(-c2cnc3c(c2)OCCN3)cc1)c1ccc(F)cc1 [Example 137, (S)-5-cyano-2-(4-(3,4-dihydro-2H-pyrido [3,2-b][1,4]oxazin-7-yl)benzylamino)-N-(1-(4-fluorophenyl)ethyl)nicotinamide] | 1 to 10 µM | < 0.1 µM
6 | Cc1nc2cc(-c3ccc(CNc4ncc(C#N)cc4C(=O)N[C@@H](C)c4ccc(F)cc4)cc3)cnc2[nH]1 [Example 138, (S)-5-cyano-N-(1-(4-fluorophenyl)ethyl)-2-(4-(2-methyl-3H-imidazo[4,5-b]pyridin-6-yl)benzylamino) nicotinamide] | < 1 µM | < 0.1 µM
7 | C[C@H](NC(=O)c1cc(C#N)cnc1NCc1ccc(-c2cnc3c(c2)CCN3)cc1)c1ccc(F)cc1 [Example 139, (S)-5-cyano-2-(4-(3,4-dihydro-1H-pyrrolo [2,3-b]pyridin-5-yl)benzylamino)-N-(1-(4-fluorophenyl)ethyl) nicotinamide] | < 1 µM | < 0.1 µM
8 | CNc1ccc(-c2ccc(CNc3ncc(C#N)cc3C(=O)N[C@@H](C)c3ccc(F)cc3)cc2)cn1 [Example 141] | 1 to 10 µM | < 0.1 µM
9 | C[C@H](NC(=O)c1cc(C#N)cnc1NCc1ccc(-c2c[nH]nc2N)cc1)c1ccc(F)cc1 [Example 142, (S)-2-(4-(3-amino-1H-pyrazol-4-yl)benzylamino)-5-cyano-N-(1-(4-fluorophenyl)ethyl) nicotinamide] | 1 to 10 µM | > 5 µM
10 | C[C@H](NC(=O)c1cc(C#N)cnc1NCc1ccc(-c2cn(S(=O)(=O)c3ccccc3)nc2N)cc1)c1ccc(F)cc1 [Example 143, (S)-2-(4-(3-amino-1-(phenylsulfonyl)-1H-pyrazol-4-yl)benzylamino)-5-cyano-N-(1-(4-fluorophenyl)ethyl) nicotinamide] | > 10 µM | > 5 µM
11 | C[C@H](NC(=O)c1cc(C#N)cnc1NCc1ccc(-c2cccc3n[nH]c(=O)n23)cc1)c1ccc(F)cc1 [Example 144, (S)-5-cyano-N-(1-(4-fluorophenyl)ethyl)-2-(4-(3-oxo-2,3-dihydro-[1,2,4]triazolo[4,3-a]pyridin-5-yl)benzyl-amino)nicotinamide] | > 10 µM | > 5 µM

The remaining lines, values ahead:

Row | EC50 [1] | IC50 (PDK1) | Compound
12 | > 10 µM | > 5 µM | C[C@H](NC(=O)c1cc(C#N)cnc1NCc1ccc(-c2ccc3n[nH]c(=O)n3c2)cc1)c1ccc(F)cc1 [Example 145, (S)-5-cyano-N-(1-(4-fluorophenyl)ethyl)-2-(4-(3-oxo-2,3-dihydro-[1,2,4]triazolo[4,3-a]pyridin-6-yl)benzyl-amino)nicotinamide]
13 | < 1 µM | < 0.1 µM | C[C@H](NC(=O)c1cc(C#N)cnc1NCc1ccc(-c2cnc3[nH]nc(C#CCN(C)C)c3c2)cc1)c1ccc(F)cc1 [Example 146, (S)-5-cyano-2-(4-(3-(3-(dimethylamino)prop-1-ynyl)-1H-pyrazolo[3,4-b]pyridin-5-yl)benzyl-amino)-N-(1-(4-fluorophenyl)ethyl) nicotinamide]
14 | 1 to 10 µM | < 0.1 µM | CCCc1n[nH]c2ncc(-c3ccc(CNc4ncc(C#N)cc4C(=O)N[C@@H](C)c4ccc(F)cc4)cc3)cc12 [Example 147, (S)-5-cyano-N-(1-(4-fluorophenyl)ethyl)-2-(4-(3-propyl-1H-pyrazolo[3,4-b]pyridin-5-yl)benzyl-amino)nicotinamide]
15 | > 10 µM | < 0.1 µM | C[C@H](NC(=O)c1cc(C#N)cnc1NCc1ccc(-c2cnc(N)c(C(=O)O)c2)cc1)c1ccc(F)cc1 [Example 148, (S)-2-amino-5-(4-((5-cyano-3-(1-(4-fluorophenyl)ethylcarbamoyl)pyridin-2-ylamino)methyl)phenyl) nicotinic acid]
16 | < 1 µM | < 0.1 µM | C[C@H](NC(=O)c1cc(C#N)cnc1NCc1ccc(-c2cnc3[nH]nc(CCCN(C)C)c3c2)cc1)c1ccc(F)cc1 [Example 149, (S)-5-cyano-2-(4-(3-(3-(dimethylamino)propyl)-1H-pyrazolo[3,4-b]pyridin-5-yl)benzyl-amino)-N-(1-(4-fluorophenyl)ethyl) nicotinamide]
17 | < 1 µM | < 0.1 µM | C[C@H](NC(=O)c1cc(C#N)cnc1NCc1ccc(-c2cnc3[nH]nc(CCCN)c3c2)cc1)c1ccc(F)cc1 [Example 150]
18 | > 10 µM | < 0.1 µM | C[C@H](NC(=O)c1cc(C#N)cnc1NCc1ccc(-c2cnc3[nH]nc(CN(C)C)c3c2)cc1)c1ccc(F)cc1 [Example 151, (S)-5-cyano-2-(4-(3-((dimethylamino)methyl)-1H-pyrazolo[3,4-b]pyridin-5-yl)benzyl-amino)-N-(1-(4-fluorophenyl)ethyl) nicotinamide]
19 | 1 to 10 µM | < 0.1 µM | C[C@H](NC(=O)c1cc(C#N)cnc1NCc1ccc(-c2cnc3[nH]nc(CN)c3c2)cc1)c1ccc(F)cc1 [Example 152, (S)-2-(4-(3-(aminomethyl)-1H-pyrazolo[3,4-b]pyridin-5-yl)benzyl-amino)-5-cyano-N-(1-(4-fluorophenyl)ethyl)nicotinamide]
20 | 1 to 10 µM | < 0.1 µM | NCCNc1n[nH]c2ncc(-c3ccc(CNc4ncc(C(F)(F)F)cc4C(=O)NCc4ccc(F)c(F)c4)cc3)cc12 [Example 153, 2-(4-(3-(2-amino-ethylamino)-1H-pyrazolo [3,4-b]pyridin-5-yl)benzylamino)-N-(3,4-difluorobenzyl)-5-(trifluoromethyl) nicotinamide]
21 | < 1 µM | < 0.1 µM | NCCNc1n[nH]c2ncc(-c3ccc(CNc4ncc(C(F)(F)F)cc4C(=O)Nc4ccc(F)cc4)cc3)cc12 [Example 154, 2-(4-(3-(2-amino-ethylamino)-1H-pyrazolo [3,4-b]pyridin-5-yl)benzylamino)-N-(4-fluorophenyl)-5-(trifluoromethyl) nicotinamide]
22 | < 1 µM | < 0.1 µM | Nc1cnc(-c2ccc(CNc3ncc(C(F)(F)F)cc3C(=O)Nc3ccc(F)cc3)cc2)cn1 [Example 155, 2-(4-(5-aminopyrazin-2-yl)benzylamino)-N-(4-fluorophenyl)-5-(trifluoromethyl)nicotinamide]
